The nature of series [1]: Metabolic stability in human liver microsomes assessed as half life at 10 uM preincubated for 3 mins followed by NADPH addition and measured upto 120 mins by HPLC analysis. The series is classed as ADME, Microsome. The following applies: time < 123 min. For orientation: Liver microsomes are vesicles of endoplasmic reticulum, rich in cytochrome P450 enzymes.
Series [2] can be described thus: Inhibition of human CES2A using fluorescein diacetate as fluorescent substrate preincubated for 3 mins followed by substrate addition and measured after 30 mins by fluorescence based analysis.
Series [3] in a line: Metabolic stability in human liver microsomes assessed as half life at 10 uM preincubated for 3 mins followed by UDPGA addition and measured upto 120 mins by HPLC analysis. The series is classed as ADME, Microsome. The following applies: time < 123 min.
Series [4] in a line: Inhibition of human CES1A using NLMe as substrate preincubated for 3 mins followed by substrate addition and measured after 20 mins by Spectra max microplate reader analysis.
The species named for another series is Homo sapiens. The experiment in a line: Selectivity ratio of IC50 for human CES1A to IC50 for human CES2A.
A short description of series [5]: Binding affinity to human CES2A assessed as inhibition constant using fluorescein diacetate as fluorescent substrate preincubated for 3 mins followed by substrate addition and measured after 30 mins by Lineweaver-Burk plot analysis.
A further series deals with HepG2. Description: Cytotoxicity against human HepG2 cells assessed as reduction in cell viability at 10 uM measured after 24 hrs by CCK-8 method. Format: toxicity, cell-based. The following applies: hepg2, 24 h. For orientation: Formazan colour is commonly taken as a measure of viable cells.
Series [6] is described as follows: Inhibition of intracellular CES2A in human HepG2 cells assessed as reduction in NCEN hydrolysis incubated for 1 hr. Format: cell-based.

On to `C[C@]12CC[C@H]3[C@@H](CCC4=CC(=O)CC[C@@]43C)[C@@H]1CC[C@@H]2O` [TESTOSTERONE], for which the half-life (in general, the time in which the quantity being followed falls by half) at 10 µM in series [1] turned out to be 0.46 h.
Turning to `CCCCCCCCC(=O)c1cccc2oc(-c3ccc(OC)cc3O)cc12`, in series [2], half-maximal inhibition (IC50) required 140 nM.
Still for that read-out and setting: with `CCCCCCCCC(=O)c1cccc(O)c1-c1cc2c(C(=O)CCCCCCCC)cccc2o1` the figure was 1090 nM; with `CCCCCCC(=O)c1cccc2oc(-c3cc(C(F)(F)F)ccc3O)cc12`, 20 nM.
Turning to `CCCCCCCCC(=O)c1cccc(O)c1-c1cc2ccccc2o1`, the IC50 (commonly the point on the concentration scale where inhibition reaches its midpoint) in series [2] amounted to 230 nM.
The same measure, in the same setting: with `CCCCCCCCC(=O)c1cccc2oc(-c3ccccc3O)cc12` the figure was 32 nM; with `CCCCCCCCC(=O)c1cccc(O)c1-c1cc2c(C(=O)CCCCCC)cccc2o1`, 58 nM; with `CCCCCCCCC(=O)c1cccc2oc(-c3ccc(C)cc3C(=O)O)cc12`, 110 nM.
On to `O=c1ccc2ccc(O)cc2o1` [UMBELLIFERONE], for which, in series [3], the half-life at 10 µM stood at 0.304 h.
In series [2], `CCCCCCC(=O)c1cccc2oc(-c3cc(C(=O)OC)ccc3O)cc12` showed an IC50 of 35 nM.
Same read-out and setting: with `CCCCCCCCC(=O)c1cccc2oc(-c3c(O)cccc3C(=O)CCCCCC)cc12` the figure was 54 nM.
In the case of `CCCCCCC(=O)c1c(C)ccc2oc(-c3cc(OC)ccc3O)cc12`, the IC50 in series [2] is 2 nM; in series [4] it was 7260 nM; in series [6] (Homo sapiens, HepG2, 1 h, read-out: IC50), 52 nM; in series [6] (hepg2), “Dose-Dependent Effect”. Moreover, in the series listed under Homo sapiens, the Ratio IC50 was 4540. In addition, the Ki (usually the equilibrium dissociation constant of an inhibitor or competing ligand from its target) in series [5] was found to be 1.4 nM. Further, the Activity entry in the series with HepG2 is listed as “Non-Toxic”. In addition, the half-life at 10 µM in series [1] is 2.1 h; in series [3], 1.62 h.
Compound `CCCCCCCCC(=O)c1cccc(O)c1-c1cc2cc(OC)ccc2o1` registered an IC50 in series [2] of 100 nM.
Same read-out and setting: as for `CCCCCCCCC(=O)c1cccc(O)c1-c1cc2c(C(=O)CCC)cccc2o1`, the figure is 120 nM.
In the case of `CCCCCCCCC(=O)c1cccc2oc(-c3ccccc3C(=O)O)cc12`, in series [2], the IC50 came out at 130 nM.
Same read-out and setting: with `CCCCCCCCC(=O)c1cccc(O)c1-c1cc2ccc(OC)cc2o1` the figure was 190 nM; with `CCCCCCCCC(=O)c1cccc2oc(-c3c(O)cccc3C(=O)CCC)cc12`, 29 nM.
As to `CCCCCCCCC(=O)c1cccc2oc(-c3cc(OC)ccc3O)cc12`, the IC50 was 22 nM in series [2] and 2610 nM in series [4].
`CCCCCCCCC(=O)c1cccc(OC)c1-c1cc2c(C(=O)CCCCCCCC)cccc2o1` showed an IC50 in series [2] of 600 nM.
In series [2], `CCCCCCCCC(=O)c1cccc2oc(-c3ccccc3)cc12` yielded an IC50 of 5410 nM.
The same measure, in the same setting: as for `CCCCCCC(=O)c1cccc2oc(-c3cc(C(=O)O)ccc3O)cc12`, the figure is 200 nM; as for `CCCCCCCCC(=O)c1cccc2oc(-c3ccccc3C(=O)OC)cc12`, 100 nM.
Same read-out and setting: with `CCCCCCC(=O)c1cccc2oc(-c3ccccc3C(=O)O)cc12` the figure was 360 nM; with `CCCCCCC(=O)c1cccc2oc(-c3ccc(C)cc3C(=O)OC)cc12`, 300 nM.
With `CCCCCCCCC(=O)c1cccc2oc(-c3cc(C)ccc3O)cc12`, the IC50 in series [2] turned out to be 54 nM.
On the same count and under the same terms, with `CCCCCCC(=O)c1cccc2oc(-c3cc(OCC)ccc3O)cc12` the figure was 9 nM; with `CCCC(=O)c1cccc2oc(-c3cc(OC)ccc3O)cc12`, 21 nM; with `CCCCCCC(=O)c1cccc2oc(-c3ccc(C)cc3C(=O)O)cc12`, 490 nM.
Turning to `CCCCCCC(=O)c1cccc2oc(-c3ccccc3C(=O)OC)cc12`, 250 nM corresponded to half-maximal inhibition in series [2] (IC50).
Take `CCCCCCCCC(=O)c1cccc2oc(-c3ccc(C)cc3C(=O)OC)cc12`: in series [2], 310 nM corresponded to half-maximal inhibition (IC50).
The same measure, in the same setting: as for `CCCCCCCCC(=O)c1cccc(O)c1-c1cc2cc(C)ccc2o1`, the figure is 84 nM.
Same read-out and setting: with `CN(C)C(=O)C(CCN1CCC(O)(c2ccc(Cl)cc2)CC1)(c1ccccc1)c1ccccc1` [LOPERAMIDE] the figure was 350 nM.
The compound `CCCCCCC(=O)c1cccc2oc(-c3cc(OC)ccc3O)cc12` showed a concentration for half-maximal inhibition (IC50) in series [2] of 8 nM.
Still for that read-out and setting: as for `CCCCCCCCC(=O)c1cccc(OC(C)=O)c1-c1cc2c(C(=O)CCCCCCCC)cccc2o1`, the figure is 690 nM.

The values above are taken from ChEMBL document CHEMBL5625217, “New bysspectin A derivatives as potent inhibitors of human carboxylesterase 2A” (Eur J Med Chem, 2023).
